Patent US8569362B2, “Polyketide molecules as anticancer agents” (Pierre Fabre Medicament, priority 2009, dated 2013)

Tests used:
Format in all cases: cell-based
SK-OV-3 (ovarian cancer) = test: Growth inhibition of human cancer cell lines, ATP-lite luminescence, SK-OV-3; settings: SK-OV-3, 48 h incubation, cell survival by ATP luminescence
Procedure: (§1) The cancerous cells [lines A549 (non small cell lung cancer), BxPC3 (cancer of the pancreas), LoVo (colon cancer), MCF7 (breast cancer), Namalwa (Burkitt's lymphoma) and SK-OV-3 (ovarian cancer)] were cultured in a 96-well plate in RPMI 1640 medium without phenol red (Seromed) to which was added 10% of foetal veal serum (100 μl/well, 1 to 3.10^4 cells/ml depending on the considered line). After an incubation of 24 h at 37° C. in an incubator with 5% CO2, the medium was replaced by that containing the compound to be tested (molecule I-1), after which the plates were incubated for an additional 48 h. Cell survival was evaluated by measurement of the luminescence after release of ATP in the medium using the cell lysis solutions, luciferase and luciferine contained in the ATP-lite-MTM kit, as recommended by the manufacturer (Packard, Rungis, France). Each experimental condition was tested at least three times in sextuplets. The table below presents the IC50 data (expressed in M) of the molecule I-1, as a function of the different cell lines tested.

[1] = test system: BxPC3 (cancer of the pancreas); test: Growth inhibition of human cancer cell lines, ATP-lite luminescence, BxPC3; settings: BXPC-3, BxPC3, 48 h incubation, cell survival by ATP luminescence
Procedure: as §1

LoVo (colon cancer) = test: Growth inhibition of human cancer cell lines, ATP-lite luminescence, LoVo; settings: 48 h incubation, cell survival by ATP luminescence
Procedure: as §1

[2] = test system: HeLa tumoral cells (human carcinoma); test: Cellular phenotype (immunofluorescence and microscopy; α-tubulin, γ-tubulin, DAPI); settings: 24 h treatment
Procedure: The HeLa tumoral cells (human carcinoma) were cultured for 24 h on 12 mm diameter glass slides, placed in 24-well culture plates (7.10^3 cells per well).
The cells were then treated for a new period of 24 h by the molecule I-1 at the tested concentrations. […] The DNA was labelled with DAPI (0.2 μg/ml—15 minutes—37° C.). After the different labellings, the slides were dried and mounted in a Vectashield mounting liquid (AbCys, France), before being observed through an epi-fluorescence microscope (Axiovert 200M; objective×63 Plan Apochromat NA, 1.4; ZEISS, France).

[3] = test system: Namalwa (Burkitt's lymphoma); test: Growth inhibition of human cancer cell lines, ATP-lite luminescence, Namalwa; settings: 48 h incubation, cell survival by ATP luminescence
Procedure: as §1

[4] = test system: A549 (non small cell lung cancer); test: Growth inhibition of human cancer cell lines, ATP-lite luminescence, A549; settings: A549, 48 h incubation, cell survival by ATP luminescence
Procedure: as §1

MCF7 (breast cancer) = test: Growth inhibition of human cancer cell lines, ATP-lite luminescence, MCF7; settings: MCF7, 48 h incubation, cell survival by ATP luminescence
Procedure: as §1

Question: How did the IC50 (SK-OV-3 (ovarian cancer)) turn out when `COC(CCC(C)C1(O)CC(C(C)/C=C(C)/C=C(\C)C(O)C(C)C(O)C(C)C(OC)C(C)/C=C/C=C/C=C/C(=O)O)OC(=O)C1O)CC(CC(O)C(C)C/C=C/C(C)C1CC(C(C)CCC(C)O)C(O)C(=O)O1)OC` (stereo not shown) [molecule I-1] was run?
Answer: 0.33 nM

Question: And the IC50 [1]?
Answer: 0.47 nM

Question: What about the IC50 (LoVo (colon cancer)) of the same compound?
Answer: 0.081 nM

Question: And the “Centrosomes of interphasic cells (γ-tubulin labelling)” value ([2]; between 5.10^−9M and 5.10^−8M)?
Answer: often separated and normally labelled by γ-tubulin

Question: What about the “Microtubular cytoskeleton of interphasic cells (labelling by α-tubulin)” value ([2]; between 5.10^−9M and 5.10^−8M) of the same compound?
Answer: devoid of microtubular cytoskeleton

Question: And the “Centrosomes of mitotic cells (γ-tubulin labelling)” value ([2]; between 10^−9M and 5.10^−8M)?
Answer: normally present and labelled by γ-tubulin

Question: And the “Mitotic cells: mitotic block and microtubules (α-tubulin labelling)” value ([2]; dose effect between 10^−9M and 5.10^−8M)?
Answer: blocked in prometaphase without microtubules

Question: And the IC50 [3]?
Answer: 1.1 nM

Question: And the IC50 [4]?
Answer: 0.82 nM

Question: What about the IC50 (MCF7 (breast cancer)) of the same compound?
Answer: 0.011 nM
